Source: patent publication US10405547B2, “Substituted cyclic amides as herbicides” (FMC Corporation, priority 2015, dated 2019)

Experiments:
Format in all cases: in vivo
[1] = test system: kochia (Kochia scoparia); experiment: Test A preemergence, kochia; conditions: 0 to 100 scale (0 no effect, 100 complete control)
Outline: (§1)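 Ratings use a 0–100 scale, where 0 means no effect and 100 means complete control, and come from visual comparison with untreated plants roughly 10 days after treatment. Compounds were applied in a surfactant-containing, non-phytotoxic solvent, either to soil after seeding or to foliage of small seedlings.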

[2] = test system: barnyardgrass (Echinochloa crus-galli); experiment: Test B flooded paddy test, barnyardgrass; conditions: 250 g ai/ha, applied to paddy water, visual rating after 13 to 15 days, scale 0 (no effect) to 100 (complete control)
Outline: (§2)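 Test compounds are applied straight into paddy water held 3 cm above the soil surface, with that flood maintained for the whole test. After 13 to 15 days in the greenhouse, each species is scored visually relative to controls.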

[3] = test system: pigweed (Amaranthus retroflexus); experiment: Test A preemergence, pigweed; conditions: 0 to 100 scale (0 no effect, 100 complete control)
Outline: as §1

[4] = test system: barnyardgrass (Echinochloa crus-galli); experiment: Test A postemergence, barnyardgrass; conditions: visual injury, 0 to 100 scale (0 no effect, 100 complete control), approximately 10 days
Outline: as §1

[5] = test system: ducksalad (Heteranthera limosa); experiment: Test B flooded paddy test, ducksalad; conditions: 250 g ai/ha, applied to paddy water, visual rating after 13 to 15 days, scale 0 (no effect) to 100 (complete control)
Outline: as §2

[6] = test system: ryegrass, Italian (Lolium multiflorum); experiment: Test A postemergence, Italian ryegrass; conditions: visual injury, 0 to 100 scale (0 no effect, 100 complete control), approximately 10 days
Outline: as §1

[7] = test system: barnyardgrass (Echinochloa crus-galli); experiment: Test A preemergence, barnyardgrass; conditions: 0 to 100 scale (0 no effect, 100 complete control)
Outline: as §1

[8] = test system: pigweed (Amaranthus retroflexus); experiment: Test A postemergence, pigweed; conditions: visual injury, 0 to 100 scale (0 no effect, 100 complete control), approximately 10 days
Outline: as §1

[9] = test system: sedge, umbrella (small-flower umbrella sedge, Cyperus difformis); experiment: Test B flooded paddy test, umbrella sedge; conditions: 250 g ai/ha, applied to paddy water, visual rating after 13 to 15 days, scale 0 (no effect) to 100 (complete control)
Outline: as §2

[10] = test system: corn (Zea mays); experiment: Test A postemergence, corn; conditions: visual injury, 0 to 100 scale (0 no effect, 100 complete control), approximately 10 days
Outline: as §1

[11] = test system: ragweed (common ragweed, Ambrosia elatior); experiment: Test A preemergence, ragweed; conditions: 0 to 100 scale (0 no effect, 100 complete control)
Outline: as §1

[12] = test system: kochia (Kochia scoparia); experiment: Test A postemergence, kochia; conditions: visual injury, 0 to 100 scale (0 no effect, 100 complete control), approximately 10 days
Outline: as §1

[13] = test system: rice (Oryza sativa); experiment: Test B flooded paddy test, rice; conditions: 250 g ai/ha, applied to paddy water, visual rating after 13 to 15 days, scale 0 (no effect) to 100 (complete control)
Outline: as §2

[14] = test system: galium (catchweed bedstraw, Galium aparine); experiment: Test A postemergence, galium; conditions: visual injury, 0 to 100 scale (0 no effect, 100 complete control), approximately 10 days
Outline: as §1

[15] = test system: foxtail, giant (Setaria faberii); experiment: Test A postemergence, giant foxtail; conditions: visual injury, 0 to 100 scale (0 no effect, 100 complete control), approximately 10 days
Outline: as §1

[16] = test system: foxtail, giant (Setaria faberii); experiment: Test A preemergence, giant foxtail; conditions: 0 to 100 scale (0 no effect, 100 complete control)
Outline: as §1

[17] = test system: ragweed (common ragweed, Ambrosia elatior); experiment: Test A postemergence, ragweed; conditions: visual injury, 0 to 100 scale (0 no effect, 100 complete control), approximately 10 days
Outline: as §1

[18] = test system: blackgrass (Alopecurus myosuroides); experiment: Test A postemergence, blackgrass; conditions: visual injury, 0 to 100 scale (0 no effect, 100 complete control), approximately 10 days
Outline: as §1

[19] = test system: wheat (Triticum aestivum); experiment: Test A postemergence, wheat; conditions: visual injury, 0 to 100 scale (0 no effect, 100 complete control), approximately 10 days
Outline: as §1

[20] = test system: ryegrass, Italian (Lolium multiflorum); experiment: Test A preemergence, Italian ryegrass; conditions: 0 to 100 scale (0 no effect, 100 complete control)
Outline: as §1

Row | SMILES | Plant response rating, Kochia ([1]; 125 g ai/ha) | Plant response rating, Kochia ([1]; 500 g ai/ha) | Plant response rating, Barnyardgrass (Flood) [2] | Plant response rating, Pigweed ([3]; 125 g ai/ha) | Plant response rating, Pigweed ([3]; 500 g ai/ha) | Plant response rating, Barnyardgrass ([4]; 125 g ai/ha) | Plant response rating, Barnyardgrass ([4]; 500 g ai/ha) | Plant response rating, Ducksalad (Flood) [5] | Plant response rating, Ryegrass, Italian ([6]; 125 g ai/ha) | Plant response rating, Ryegrass, Italian ([6]; 500 g ai/ha) | Plant response rating, Barnyardgrass ([7]; 125 g ai/ha) | Plant response rating, Barnyardgrass ([7]; 500 g ai/ha) | Plant response rating, Pigweed ([8]; 125 g ai/ha) | Plant response rating, Pigweed ([8]; 500 g ai/ha) | Plant response rating, Sedge, Umbrella (Flood) [9] | Plant response rating, Corn ([10]; 125 g ai/ha) | Plant response rating, Corn ([10]; 500 g ai/ha) | Plant response rating, Ragweed ([11]; 125 g ai/ha) | Plant response rating, Ragweed ([11]; 500 g ai/ha) | Plant response rating, Kochia ([12]; 125 g ai/ha) | further results
1 | O=C1NCC(c2cccc(Oc3ccc(C(F)(F)F)cn3)c2)C1C(=O)Nc1cccc(F)c1F (single isomer, unassigned) [Compound 47] | 0 | 0 | 0 | 0 | 50 | 70 | 90 | 0 | 0 | 30 | 50 | 80 | 60 | 70 | 0 | 20 | 80 | 0 | 60 | 0 | Plant response rating, Kochia ([12]; 500 g ai/ha): 60; Plant response rating, Rice (Flood) [13]: 0; Plant response rating, Galium ([14]; 125 g ai/ha): 60; Plant response rating, Galium ([14]; 500 g ai/ha): 70; Plant response rating, Foxtail, Giant ([15]; 125 g ai/ha): 60; Plant response rating, Foxtail, Giant ([15]; 500 g ai/ha): 80; Plant response rating, Foxtail, Giant ([16]; 125 g ai/ha): 90; Plant response rating, Foxtail, Giant ([16]; 500 g ai/ha): 90; Plant response rating, Ragweed ([17]; 125 g ai/ha): 0; Plant response rating, Ragweed ([17]; 500 g ai/ha): 0; Plant response rating, Blackgrass ([18]; 125 g ai/ha): 0; Plant response rating, Blackgrass ([18]; 500 g ai/ha): 20; Plant response rating, Wheat ([19]; 125 g ai/ha): 0; Plant response rating, Wheat ([19]; 500 g ai/ha): 30; Plant response rating, Ryegrass, Italian ([20]; 125 g ai/ha): 0; Plant response rating, Ryegrass, Italian ([20]; 500 g ai/ha): 70
2 | O=C1NCC(c2cccc(Oc3ccc(F)cn3)c2)C1C(=O)Nc1ccccc1F (single isomer, unassigned) [Compound 49] | 20 | 70 | 0 | 0 | 20 | 80 | 90 | 100 | 0 | 50 | 90 | 90 | 0 | 20 | 0 | 30 | 40 | 0 | 40 | 0 | Plant response rating, Kochia ([12]; 500 g ai/ha): 0; Plant response rating, Rice (Flood) [13]: 0; Plant response rating, Galium ([14]; 125 g ai/ha): 20; Plant response rating, Galium ([14]; 500 g ai/ha): 70; Plant response rating, Foxtail, Giant ([15]; 125 g ai/ha): 70; Plant response rating, Foxtail, Giant ([15]; 500 g ai/ha): 90; Plant response rating, Foxtail, Giant ([16]; 125 g ai/ha): 90; Plant response rating, Foxtail, Giant ([16]; 500 g ai/ha): 90; Plant response rating, Ragweed ([17]; 125 g ai/ha): 0; Plant response rating, Ragweed ([17]; 500 g ai/ha): 40; Plant response rating, Blackgrass ([18]; 125 g ai/ha): 0; Plant response rating, Blackgrass ([18]; 500 g ai/ha): 40; Plant response rating, Wheat ([19]; 125 g ai/ha): 0; Plant response rating, Wheat ([19]; 500 g ai/ha): 40; Plant response rating, Ryegrass, Italian ([20]; 125 g ai/ha): 40; Plant response rating, Ryegrass, Italian ([20]; 500 g ai/ha): 70
